# Source: article PMC11022538, “Antibacterial insights into alternariol and its derivative alternariol monomethyl ether produced by a marine fungus” (Applied and Environmental Microbiology, 2024)
# Legend:
# Assay in all cases: plasmid pCT74 unwinding, agarose gel
# Assay type in all cases: biochemical
# Conditions in all cases: AOH 4 µg/mL (Fig 6; 1 µg in a 20 µL reaction), 5 min pre-incubation, 37°C, Mg2+; qualitative inhibition; no ATP listed
# [1] = target: T1, Topc (Staphylococcus aureus, UniProt P0A0K8+P20831)
# T1 construct: gene gyrA; Top1 and Top2 combined; each in pET28a, His-tagged, E. coli BL21(DE3)
# [2] = target: T2, Top1 (Staphylococcus aureus, UniProt P20831)
# T2 construct: gene gyrA; full gene in pET28a, His-tagged, E. coli BL21(DE3), Ni column; tag kept
# [3] = target: T3, Top3 (Staphylococcus aureus, UniProt Q5HGI2)
# T3 construct: gene topA; full gene in pET28a, His-tagged, E. coli BL21(DE3), Ni column; tag kept
# [4] = target: T4, Top4 (Staphylococcus aureus, UniProt Q99S17)
# T4 construct: gene topB; full gene in pET28a, His-tagged, E. coli BL21(DE3), Ni column; tag kept
# T4 sequence (Q99S17 whole entry): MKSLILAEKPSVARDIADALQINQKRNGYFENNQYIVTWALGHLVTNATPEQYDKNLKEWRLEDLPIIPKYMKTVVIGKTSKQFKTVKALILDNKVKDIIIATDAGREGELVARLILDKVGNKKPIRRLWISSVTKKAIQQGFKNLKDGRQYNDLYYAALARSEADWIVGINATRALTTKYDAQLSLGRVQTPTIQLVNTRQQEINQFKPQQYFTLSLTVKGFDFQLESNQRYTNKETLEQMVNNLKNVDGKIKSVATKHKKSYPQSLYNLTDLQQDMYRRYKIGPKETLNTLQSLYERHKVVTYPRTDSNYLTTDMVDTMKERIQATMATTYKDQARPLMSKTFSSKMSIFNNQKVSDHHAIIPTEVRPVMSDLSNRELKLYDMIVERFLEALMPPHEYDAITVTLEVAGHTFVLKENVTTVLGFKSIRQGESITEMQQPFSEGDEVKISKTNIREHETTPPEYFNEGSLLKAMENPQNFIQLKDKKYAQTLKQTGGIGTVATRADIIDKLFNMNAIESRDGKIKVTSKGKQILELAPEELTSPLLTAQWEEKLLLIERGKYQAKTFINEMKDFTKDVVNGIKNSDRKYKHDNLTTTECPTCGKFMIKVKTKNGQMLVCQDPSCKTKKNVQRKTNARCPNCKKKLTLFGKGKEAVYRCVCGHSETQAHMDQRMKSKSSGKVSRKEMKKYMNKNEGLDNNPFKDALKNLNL
# T1 sequence (P20831 whole entry): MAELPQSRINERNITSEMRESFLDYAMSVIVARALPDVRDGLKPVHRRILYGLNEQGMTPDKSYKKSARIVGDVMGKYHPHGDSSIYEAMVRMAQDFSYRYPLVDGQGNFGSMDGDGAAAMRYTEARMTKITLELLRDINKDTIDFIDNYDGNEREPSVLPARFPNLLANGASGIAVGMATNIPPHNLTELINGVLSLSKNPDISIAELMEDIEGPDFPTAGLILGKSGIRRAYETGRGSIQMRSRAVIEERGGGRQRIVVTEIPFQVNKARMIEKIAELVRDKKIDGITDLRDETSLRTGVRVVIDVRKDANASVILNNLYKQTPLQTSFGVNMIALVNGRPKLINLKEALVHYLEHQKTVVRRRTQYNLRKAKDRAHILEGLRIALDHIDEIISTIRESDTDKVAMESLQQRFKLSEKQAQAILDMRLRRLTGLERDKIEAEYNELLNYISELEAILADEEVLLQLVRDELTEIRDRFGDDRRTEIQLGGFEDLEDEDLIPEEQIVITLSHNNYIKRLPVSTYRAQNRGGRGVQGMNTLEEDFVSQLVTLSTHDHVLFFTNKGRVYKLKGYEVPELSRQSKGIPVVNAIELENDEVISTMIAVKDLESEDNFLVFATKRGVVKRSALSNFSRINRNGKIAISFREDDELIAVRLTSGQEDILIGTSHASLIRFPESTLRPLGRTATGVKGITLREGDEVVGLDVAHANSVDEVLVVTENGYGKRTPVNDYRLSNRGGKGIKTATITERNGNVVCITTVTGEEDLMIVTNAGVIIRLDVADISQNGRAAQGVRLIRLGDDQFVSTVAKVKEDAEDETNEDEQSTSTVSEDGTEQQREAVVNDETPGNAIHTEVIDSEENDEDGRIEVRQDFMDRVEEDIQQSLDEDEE
# T1 sequence (P0A0K8 2-644): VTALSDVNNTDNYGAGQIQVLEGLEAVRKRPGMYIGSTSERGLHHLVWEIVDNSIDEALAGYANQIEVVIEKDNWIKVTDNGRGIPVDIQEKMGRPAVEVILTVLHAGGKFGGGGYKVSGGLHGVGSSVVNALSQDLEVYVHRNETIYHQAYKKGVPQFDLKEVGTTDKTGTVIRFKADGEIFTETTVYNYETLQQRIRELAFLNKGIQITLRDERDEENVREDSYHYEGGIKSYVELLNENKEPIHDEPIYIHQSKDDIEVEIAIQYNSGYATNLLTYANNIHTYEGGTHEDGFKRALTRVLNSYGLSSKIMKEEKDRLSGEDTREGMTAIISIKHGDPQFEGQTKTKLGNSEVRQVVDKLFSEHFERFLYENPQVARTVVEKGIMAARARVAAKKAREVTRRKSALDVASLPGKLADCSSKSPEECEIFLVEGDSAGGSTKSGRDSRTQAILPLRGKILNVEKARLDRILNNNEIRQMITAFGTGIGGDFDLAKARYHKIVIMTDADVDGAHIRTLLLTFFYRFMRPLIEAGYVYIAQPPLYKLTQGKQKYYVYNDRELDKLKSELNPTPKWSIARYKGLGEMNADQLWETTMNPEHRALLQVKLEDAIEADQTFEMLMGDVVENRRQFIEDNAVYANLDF
# T2 sequence (P20831 whole entry): as the sequence (P20831 whole entry) above
# T3 sequence (Q5HGI2 whole entry): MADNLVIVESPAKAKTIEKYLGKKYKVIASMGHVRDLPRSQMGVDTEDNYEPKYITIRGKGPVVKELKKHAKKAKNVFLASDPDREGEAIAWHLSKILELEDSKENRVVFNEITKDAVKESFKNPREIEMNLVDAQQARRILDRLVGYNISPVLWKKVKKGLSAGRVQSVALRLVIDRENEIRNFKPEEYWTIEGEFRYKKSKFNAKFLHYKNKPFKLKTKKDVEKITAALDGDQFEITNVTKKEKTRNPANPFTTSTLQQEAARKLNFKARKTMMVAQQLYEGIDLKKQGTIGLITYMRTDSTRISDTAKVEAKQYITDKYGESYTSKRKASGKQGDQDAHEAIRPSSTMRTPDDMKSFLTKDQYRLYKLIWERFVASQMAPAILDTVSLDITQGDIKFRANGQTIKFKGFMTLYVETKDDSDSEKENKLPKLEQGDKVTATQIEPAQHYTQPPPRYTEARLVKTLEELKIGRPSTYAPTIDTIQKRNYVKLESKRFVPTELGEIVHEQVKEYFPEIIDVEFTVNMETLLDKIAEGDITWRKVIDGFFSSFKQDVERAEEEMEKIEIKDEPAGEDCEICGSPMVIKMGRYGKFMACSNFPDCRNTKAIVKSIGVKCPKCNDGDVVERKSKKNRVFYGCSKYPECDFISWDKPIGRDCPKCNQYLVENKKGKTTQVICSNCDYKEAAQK
smiles,measurement,setting,value
"Cc1cc(O)cc2oc(=O)c3c(O)cc(O)cc3c12 [compound 1, alternariol]","plasmid pCT74 unwinding, agarose gel",[1],AOH effectively blocked the unwinding activities of the above four topoisomerases
same,"plasmid pCT74 unwinding, agarose gel",[2],AOH effectively blocked the unwinding activities of the above four topoisomerases
same,"plasmid pCT74 unwinding, agarose gel",[3],AOH effectively blocked the unwinding activities of the above four topoisomerases
same,"plasmid pCT74 unwinding, agarose gel",[4],AOH effectively blocked the unwinding activities of the above four topoisomerases
